Data as given in US11446351B2, “Composition for treating one or more estrogen related diseases” (LIFEARC, priority 2018, dated 2022).
Counter-ions that a name gives are not always drawn. Where a SMILES comes first, the peptide text is derived from it. [ ]: non-standard residue; d: D form. dPhe(4-Cl) = N[C@H](Cc1ccc(Cl)cc1)C(=O)O; d2Nal = N[C@H](Cc1ccc2ccccc2c1)C(=O)O; d(hCit) = NC(=O)NCCCC[C@@H](N)C(=O)O; Lys(iPr) = CC(C)NCCCC[C@H](N)C(=O)O; d3Pal = N[C@H](Cc1cccnc1)C(=O)O

Columns and labels:
Assay type in all cases: in vivo, human
healthy female subjects = assay: Phase I trial (Example 1): progesterone, LH and FSH in serum
Experimental: A phase I clinical trial with formulation A and B (and placebo) was conducted in order to evaluate the pharmacokinetics, pharmacodynamics, safety and tolerability of Teverelix TFA.
The formulations were each injected subcutaneous (s.c.) as follows: • A single dosage of formulation A (60 mg Teverelix TFA) administered s.c. on day 3±1 of the menstrual cycle, to 8 healthy female subjects • A single dosage of formulation A placebo was administered s.c. to on day 3±1 of the menstrual cycle, to 4 healthy female subjects • Two dosages of formulation B (45 mg Teverelix TFA) administered s.c. to 8 healthy female subjects. The first dosage on day 3±1 of the menstrual cycle and a second dosage administered on day 10±1 of the menstrual cycle, and • two dosages of formulation B placebo was administered s.c. to 4 healthy female subjects. The first dosage on day 3±1 of the […] menstrual cycle and a second dosage administered on day 10±1 of the menstrual cycle.

women [1] = assay: Phase I study (Example 2): bone marker CTX in serum
Experimental: In order to evaluate the effect of the treatment with Teverelix TFA on the bone mineral density, two biochemical bone mineral markers was measured in the subjects. Telopeptides type I collagen, cross-linked, […] (CTX) was measured in serum of the treated subjects, and deoxypyridinoline (DPD) was measured in the subject's urine.
Said bone markers were measured on the following days in the test period: 1 (pre-dose), 15, 29, 43, 57, 64
DPD is a dynamic biochemical marker of bone loss. An increase in DPD levels in an early morning urine specimen is a reliable indicator of increased bone loss. The CTX test measures for the presence and concentration of a crosslink peptide sequence of type I collagen, found, among other tissues, in bone. This specific peptide sequence relates to bone turnover because it is the portion that is cleaved by osteoclasts during bone resorption, and its serum levels are therefore proportional to osteoclastic activity at the time the blood sample is drawn.
The concentration of DPD and CTX test were carried out at MOS Pharma Services, Central Lab GmbH, Grossmoorbogen 25, 21079 Hamburg, Germany by means of highly sensitive and specific validated chemi-luminescent (CUA) and enzyme-linked immuno-sorbent (ELISA) methods. The results are shown in FIG. 7 and table 6 respectively.

[2] = Phase I study (Example 2): Teverelix TFA concentrations in serum
Experimental: (§1) Two formulations comprising either 45 mg or 30 mg Teverelix TFA and a placebo formulations, were prepared as described in example 1, i.e. the following formulations were prepared
(§2) The respective formulations were each injected subcutaneous (s.c.) to 24 subjects—12 per group i.e. 8 on active drug 4 on placebo per group. All subjects received a dose on either the active or placebo s.c. on day 3±1 of the menstrual cycle, i.e. • A single dosage of formulation B (45 mg Teverelix TFA) administered s.c. on day 3±1 of the menstrual cycle, • A single dosages of formulation C (30 mg Teverelix TFA) administered s.c. on day 3±1 of the menstrual cycle, and • A single dosage of formulation B placebo or formulation C placebo administered s.c. on day 3±1 of the menstrual cycle.
(§3) The concentration of Teverelix TFA, and Estradiol was measured over a period of 63 days. Additionally, the effect on Teverelix TFA on two bone markers was measured.
The mean Teverelix TFA concentration in the serum of the respective subjects was measured.

women [3] = assay: Phase I study (Example 2): estradiol concentrations in serum
Experimental: as §1, §2, §3
The mean estradiol concentration in the respective subjects was measured as described in example 1.

## CC(=O)N[C@H](Cc1ccc2ccccc2c1)C(=O)N[C@H](Cc1ccc(Cl)cc1)C(=O)N[C@H](Cc1cccnc1)C(=O)N[C@@H](CO)C(=O)N[C@@H](Cc1ccc(O)cc1)C(=O)N[C@H](CCCCNC(N)=O)C(=O)N[C@@H](CC(C)C)C(=O)N[C@@H](CCCCNC(C)C)C(=O)N1CCC[C@H]1C(=O)N[C@H](C)C(N)=O [Teverelix TFA, N-Ac-d-Nal^1,d-pCl-Phe^2,d-Pal^3,d-(Hci)^6,Lys(iPr)^8,d-Ala^10 trifluoroacetate] (Ac-[d2Nal][dPhe(4-Cl)][d3Pal]SY[d(hCit)]L[Lys(iPr)]P[dA]-NH2; C-terminus assumed)
Healthy female subjects; FIG. 2
  concentration of progesterone following dosing: decreased
Healthy female subjects; FIG. 3
  concentration of LH following dosing: decreased
Healthy female subjects; FIG. 4
  concentration of FSH following dosing: decreased
Women [1]; 30 mg and 45 mg, days 1-64
  alteration in bone marker serum CTX during the study: no significant alteration
Women [1]; 30 mg, Day 1 (pre-dose)
  CTX in serum, Mean: 16.7 ng/L
Women [1]; 30 mg, Day 15
  CTX in serum, Mean: 17.1 ng/L
Women [1]; 30 mg, Day 29
  CTX in serum, Mean: 17 ng/L
Women [1]; 30 mg, Day 43
  CTX in serum, Mean: 16.7 ng/L
Women [1]; 30 mg, Day 57
  CTX in serum, Mean: 16.5 ng/L
Women [1]; 30 mg, Day 64
  CTX in serum, Mean: 16.2 ng/L
Women [1]; 45 mg, Day 1 (pre-dose)
  CTX in serum, Mean: 22.6 ng/L
Women [1]; 45 mg, Day 15
  CTX in serum, Mean: 22.4 ng/L
Women [1]; 45 mg, Day 29
  CTX in serum, Mean: 21.6 ng/L
Women [1]; 45 mg, Day 43
  CTX in serum, Mean: 22 ng/L
Women [1]; 45 mg, Day 57
  CTX in serum, Mean: 19.3 ng/L
Women [1]; 45 mg, Day 64
  CTX in serum, Mean: 17.3 ng/L
[2]; 30 mg dose
  period with quantifiable levels in serum: 42 days
[2]; 30 mg s.c., 0 h
  Mean Teverelix TFA concentration in serum: 0.00 ng/L
[2]; 45 mg dose
  period with quantifiable levels in serum: 64 days
[2]; 45 mg s.c., 0 h
  Mean Teverelix TFA concentration in serum: 0.00 ng/L
[2]; 30 + 45 mg groups, 0 h
  Mean Teverelix TFA concentration in serum: 0.00 ng/L
[2]; 30 + 45 mg groups, 0.5 h
  Mean Teverelix TFA concentration in serum: 5.79 ng/L
Women [3]; 30 mg dosage, day 0 (baseline)
  Mean Estradiol concentration in serum: 27.7 ng/L
Women [3]; 30 mg dosage, day 0.25
  Mean Estradiol concentration in serum: 16.1 ng/L
Women [3]; 30 mg dosage, day 0.5
  Mean Estradiol concentration in serum: 13.8 ng/L
Women [3]; 30 mg dosage, day 1
  Mean Estradiol concentration in serum: 12.3 ng/L
Women [3]; 30 mg dosage, day 2 (nadir)
  Mean Estradiol concentration in serum: 11.2 ng/L
Women [3]; 30 mg dosage, day 3
  Mean Estradiol concentration in serum: 13.7 ng/L
Women [3]; 30 mg dosage, day 4
  Mean Estradiol concentration in serum: 19.4 ng/L
Women [3]; 30 mg dosage, day 5
  Mean Estradiol concentration in serum: 22.6 ng/L
Women [3]; 30 mg dosage, day 6
  Mean Estradiol concentration in serum: 24.4 ng/L
Women [3]; 30 mg dosage, day 7
  Mean Estradiol concentration in serum: 31.0 ng/L
Women [3]; 30 mg dosage, day 9
  Mean Estradiol concentration in serum: 50.2 ng/L
Women [3]; 30 mg dosage, day 11
  Mean Estradiol concentration in serum: 46.5 ng/L
Women [3]; 30 mg dosage, day 13
  Mean Estradiol concentration in serum: 59.9 ng/L
Women [3]; 30 mg dosage, day 15
  Mean Estradiol concentration in serum: 36.3 ng/L
Women [3]; 30 mg dosage, day 17
  Mean Estradiol concentration in serum: 38.7 ng/L
Women [3]; 30 mg dosage, day 19
  Mean Estradiol concentration in serum: 51.4 ng/L
Women [3]; 30 mg dosage, day 21
  Mean Estradiol concentration in serum: 64.5 ng/L
Women [3]; 30 mg dosage, day 28
  Mean Estradiol concentration in serum: 67.4 ng/L
Women [3]; 30 mg dosage, day 35
  Mean Estradiol concentration in serum: 60.7 ng/L
Women [3]; 30 mg dosage, day 42
  Mean Estradiol concentration in serum: 58.6 ng/L
Women [3]; 30 mg dosage, day 49
  Mean Estradiol concentration in serum: 60.5. ng/L
Women [3]; 30 mg dosage, day 56
  Mean Estradiol concentration in serum: 105.1 ng/L
Women [3]; 30 mg dosage, day 63
  Mean Estradiol concentration in serum: 90.7 ng/L
Women [3]; 30 mg dose
  mean estradiol level over the prolonged period: 40.5 pg/mL
Women [3]; 30 mg group
  day on which estradiol levels returned to baseline: ≤ 8 days
  women who ovulated during the study period (based on peak estradiol levels): one of the 8
Women [3]; 45 mg dosage, day 0 (baseline)
  Mean Estradiol concentration in serum: 21.5 ng/L
Women [3]; 45 mg dosage, day 0.25
  Mean Estradiol concentration in serum: 16.3 ng/L
Women [3]; 45 mg dosage, day 0.5
  Mean Estradiol concentration in serum: 11.5 ng/L
Women [3]; 45 mg dosage, day 1
  Mean Estradiol concentration in serum: 8.4 ng/L
Women [3]; 45 mg dosage, day 2 (nadir)
  Mean Estradiol concentration in serum: 7.5 ng/L
Women [3]; 45 mg dosage, day 3
  Mean Estradiol concentration in serum: 11.4 ng/L
Women [3]; 45 mg dosage, day 4
  Mean Estradiol concentration in serum: 12.3 ng/L
Women [3]; 45 mg dosage, day 5
  Mean Estradiol concentration in serum: 13.3 ng/L
Women [3]; 45 mg dosage, day 6
  Mean Estradiol concentration in serum: 17.5 ng/L
Women [3]; 45 mg dosage, day 7
  Mean Estradiol concentration in serum: 17.8 ng/L
Women [3]; 45 mg dosage, day 9
  Mean Estradiol concentration in serum: 22.6 ng/L
Women [3]; 45 mg dosage, day 11
  Mean Estradiol concentration in serum: 36.4 ng/L
Women [3]; 45 mg dosage, day 13
  Mean Estradiol concentration in serum: 54.9 ng/L
Women [3]; 45 mg dosage, day 15
  Mean Estradiol concentration in serum: 91.6 ng/L
Women [3]; 45 mg dosage, day 17
  Mean Estradiol concentration in serum: 105.9 ng/L
Women [3]; 45 mg dosage, day 19
  Mean Estradiol concentration in serum: 115.1 ng/L
Women [3]; 45 mg dosage, day 21
  Mean Estradiol concentration in serum: 126.1 ng/L
Women [3]; 45 mg dosage, day 28
  Mean Estradiol concentration in serum: 80.9 ng/L
Women [3]; 45 mg dosage, day 35
  Mean Estradiol concentration in serum: 41.6 ng/L
Women [3]; 45 mg dosage, day 42
  Mean Estradiol concentration in serum: 67.4 ng/L
Women [3]; 45 mg dosage, day 49
  Mean Estradiol concentration in serum: 92.4 ng/L
Women [3]; 45 mg dosage, day 56
  Mean Estradiol concentration in serum: 104.9 ng/L
Women [3]; 45 mg dosage, day 63
  Mean Estradiol concentration in serum: 47.1 ng/L
Women [3]; 45 mg dose
  mean estradiol level over the prolonged period: 49.0 pg/mL
Women [3]; 45 mg group
  day on which estradiol levels returned to baseline: ≤ 9 days
  women who ovulated during the study period (based on peak estradiol levels): 5 of the 8
Women [3]; 30 + 45 mg groups, day 0 (baseline)
  Mean Estradiol concentration in serum: 24.6 ng/L
Women [3]; 30 + 45 mg groups, day 0.25
  Mean Estradiol concentration in serum: 16.2 ng/L
Women [3]; 30 + 45 mg groups, day 0.5
  Mean Estradiol concentration in serum: 12.7 ng/L
Women [3]; 30 + 45 mg groups, day 1
  Mean Estradiol concentration in serum: 10.4 ng/L
Women [3]; 30 + 45 mg groups, day 2
  Mean Estradiol concentration in serum: 9.4 ng/L
Women [3]; 30 + 45 mg groups, day 3
  Mean Estradiol concentration in serum: 12.6 ng/L
Women [3]; 30 + 45 mg groups, day 4
  Mean Estradiol concentration in serum: 15.8 ng/L
Women [3]; 30 + 45 mg groups, day 5
  Mean Estradiol concentration in serum: 17.9 ng/L
Women [3]; 30 + 45 mg groups, day 6
  Mean Estradiol concentration in serum: 20.9 ng/L
Women [3]; 30 + 45 mg groups, day 7
  Mean Estradiol concentration in serum: 24.4 ng/L
Women [3]; 30 + 45 mg groups, day 9
  Mean Estradiol concentration in serum: 36.4 ng/L
Women [3]; 30 + 45 mg groups, day 11
  Mean Estradiol concentration in serum: 41.8 ng/L
Women [3]; 30 + 45 mg groups, day 13
  Mean Estradiol concentration in serum: 57.2 ng/L
Women [3]; 30 + 45 mg groups, day 15
  Mean Estradiol concentration in serum: 64.0 ng/L
Women [3]; 30 + 45 mg groups, day 17
  Mean Estradiol concentration in serum: 72.3 ng/L
Women [3]; 30 + 45 mg groups, day 19
  Mean Estradiol concentration in serum: 83.3 ng/L
Women [3]; 30 + 45 mg groups, day 21
  Mean Estradiol concentration in serum: 95.3 ng/L
Women [3]; 30 + 45 mg groups, day 28
  Mean Estradiol concentration in serum: 74.1 ng/L
Women [3]; 30 + 45 mg groups, day 35
  Mean Estradiol concentration in serum: 51.1 ng/L
Women [3]; 30 + 45 mg groups, day 42
  Mean Estradiol concentration in serum: 63.0 ng/L
Women [3]; 30 + 45 mg groups, day 49
  Mean Estradiol concentration in serum: 76.4 ng/L
Women [3]; 30 + 45 mg groups, day 56
  Mean Estradiol concentration in serum: 105.0 ng/L
Women [3]; 30 + 45 mg groups, day 63
  Mean Estradiol concentration in serum: 68.9 ng/L
